# Laboratory results as given in patent publication US9145434B2 (Boehringer Ingelheim International GmbH, priority 2012, dated 2015).
# Key:
# Format in all cases: physicochemical
# [1] = tendency to absorb moisture
# [2] = physical and chemical stability of the crystalline complex; conditions: under various environmental conditions and during the production of a medicament
# [3] = mechanical stability of the crystals (grinding); conditions: allows grinding of the crystals
smiles,measurement,setting,value
N#Cc1ccc([C@@H]2O[C@H](CO)[C@@H](O)[C@H](O)[C@H]2O)cc1Cc1ccc(C2CC2)cc1.O=C(O)[C@@H]1CCCN1 [crystalline complex],tendency to absorb moisture,[1],does not show a high tendency to absorb moisture
same,physical and chemical stability,[2],high physical and chemical stability
same,mechanical stability,[3],high mechanical stability
